Where only a bound is given, the exact number is not on record here.

Data set [1] relates to itching caused by allergic dermatitis. The note with it: cited from earlier work.
For data set [2] the following is noted: in vivo; cited from earlier work.
For data set [3], the target named is JAK2 (Homo sapiens, UniProt O60674). In words: JAK2 kinase ADP-Glo assay (Example 59).
Data set [4] concerns the target JAK1 (Homo sapiens, UniProt P23458). In words: JAK1 kinase ADP-Glo assay (Example 59). The data set is classed as biochemical. The note with it: JAK1 (Invitrogen) 4 nM, ATP 20 μM, IRS1 0.05 mg/mL, 25° C. 60 min, read-out: IC50 (nM), JAK1 Experiment. Details: purchased Invitrogen PV4774.
In data set [5] the target is JAK3 (Homo sapiens, UniProt P52333). In words: JAK3 kinase ADP-Glo assay (Example 59). The data set is classed as biochemical. Details: purchased Invitrogen PV3855. The note with it: JAK3 (Invitrogen) 0.5 nM, ATP 10 μM, Poly (4:1 Glu, Tyr) 0.03 mg/mL, 25° C. 60 min, read-out: IC50 (nM), JAK3 Experiment.
Data set [6] has as its target T1, TYK2 (Homo sapiens, UniProt P29597).
T1 construct: purchased Invitrogen PV4790
In words: TYK2 kinase ADP-Glo assay (Example 59). The note with it: TYK2 (Invitrogen) 4 nM, ATP 10 μM, IRS1 0.03 mg/mL, 25° C. 60 min, read-out: IC50 (nM), TYK2 Experiment. The data set is classed as biochemical.

JAK3, sequence (P52333 781-1124 limits assumed): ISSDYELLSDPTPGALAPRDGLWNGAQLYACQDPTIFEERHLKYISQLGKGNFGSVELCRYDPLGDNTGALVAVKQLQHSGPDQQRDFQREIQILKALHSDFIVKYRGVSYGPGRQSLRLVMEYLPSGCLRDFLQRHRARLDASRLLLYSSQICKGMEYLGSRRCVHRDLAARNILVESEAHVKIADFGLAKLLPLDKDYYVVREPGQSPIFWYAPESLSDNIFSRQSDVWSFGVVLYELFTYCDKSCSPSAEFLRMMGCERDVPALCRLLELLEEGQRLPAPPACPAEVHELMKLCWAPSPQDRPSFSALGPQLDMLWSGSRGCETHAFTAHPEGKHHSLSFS
JAK1, sequence (P23458 866-1154 limits assumed): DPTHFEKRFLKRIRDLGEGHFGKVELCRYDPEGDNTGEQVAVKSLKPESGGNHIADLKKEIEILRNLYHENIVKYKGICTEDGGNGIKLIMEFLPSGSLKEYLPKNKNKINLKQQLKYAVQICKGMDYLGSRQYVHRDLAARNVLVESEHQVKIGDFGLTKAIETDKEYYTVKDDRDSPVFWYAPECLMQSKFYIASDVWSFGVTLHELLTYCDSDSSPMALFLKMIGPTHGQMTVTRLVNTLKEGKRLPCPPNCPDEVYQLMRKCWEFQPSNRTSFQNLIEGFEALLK
JAK2, sequence (O60674 808-1132 limits assumed): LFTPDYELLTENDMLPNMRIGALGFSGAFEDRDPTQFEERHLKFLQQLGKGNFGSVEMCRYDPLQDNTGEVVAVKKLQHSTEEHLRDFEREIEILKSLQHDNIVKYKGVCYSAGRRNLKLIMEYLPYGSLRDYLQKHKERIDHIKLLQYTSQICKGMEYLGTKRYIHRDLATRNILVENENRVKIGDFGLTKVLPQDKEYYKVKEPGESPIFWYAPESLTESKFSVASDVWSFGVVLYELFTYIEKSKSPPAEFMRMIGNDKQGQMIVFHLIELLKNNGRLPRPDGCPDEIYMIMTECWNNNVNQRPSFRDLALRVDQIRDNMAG
T1 sequence (P29597 833-1187 limits assumed): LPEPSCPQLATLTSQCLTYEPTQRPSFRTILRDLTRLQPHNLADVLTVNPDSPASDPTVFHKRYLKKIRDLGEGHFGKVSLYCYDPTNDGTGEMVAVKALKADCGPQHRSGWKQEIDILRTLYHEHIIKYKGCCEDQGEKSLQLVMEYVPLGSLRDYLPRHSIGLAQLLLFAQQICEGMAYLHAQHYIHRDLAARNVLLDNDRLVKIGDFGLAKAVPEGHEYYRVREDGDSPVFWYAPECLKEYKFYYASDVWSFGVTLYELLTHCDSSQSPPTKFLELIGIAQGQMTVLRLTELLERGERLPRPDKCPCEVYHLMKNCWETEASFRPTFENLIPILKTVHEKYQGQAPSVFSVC

For `CNS(=O)(=O)C[C@H]1CC[C@H](N(C)c2ncnc3[nH]ccc23)CC1` [Olatinib], the “experimental animals (dogs) that alleviated the itching response by more than 50%” value in data set [1] (on the 7th day) is “more than 70%”. Besides, in data set [1] (oral administration of 0.4-0.6 mg/kg twice a day), the “time to relieve itching during the treatment” value was not above 24 h.

`N#CC[C@H](C1CCCC1)n1cc(-c2ncnc3[nH]ccc23)cn1` [Ruxolitinib]: in data set [2], the “incidence of the most common hematological adverse effects (low platelet counts and anemia)” value was more than 20%; the “incidence of the most common non-hematological adverse effects (ecchymosis, dizziness and headache)” value is reported as more than 10%.

As for `CCc1cc(O)c(F)cc1-c1ccc2c(-c3nc4c([nH]3)CN(C(=O)C3CCC3)C4)n[nH]c2c1` [MDI-211, cyclobutyl (2-(6-(2-ethyl-5-fluoro-4-hydroxyphenyl)-1H-indazol-3-yl)pyrrolo[3,4-d]imidazol-5(1H, 4H,6H)-yl)ketone], the half-maximal inhibitory concentration (IC50) in data set [3] was determined as 198 pM; in data set [4] it was 0.162 nM; in data set [5], 0.16 nM; in data set [6], 0.266 nM.

Source of the values: patent US12180215B2, “Substituted pyrrolo[3,4-d]imidazoles as JAK inhibitors” (HENAN MEDINNO PHARMACEUTICAL TECHNOLOGY CO., LTD., priority 2019, dated 2024).
